Measured values from article PMC12116161, “An Elastase Inhibitor ShSPI from Centipede Attenuates Bleomycin-Induced Pulmonary Fibrosis” (Toxins, 2025).

Tested on: MCP-1, IL-6, IL-1β, IFN-γ, IL-10, TGF-β mRNA in lung tissue
Experiment: RT-qPCR of inflammatory factor mRNA in lung tissue of IPF mice
Type: in vivo, ICR mice
Conditions: pirfenidone 200 mg/kg oral gavage once daily for 7 days, BLM-induced IPF mice
Protocol: Animal Model Preparation: The peptide powder was dissolved in pre-cooled saline and filtered to remove bacteria, then a spray needle was attached to a micro-syringe to aspirate the peptide solution. A total of 56 ICR mice were anesthetized by intramuscular injection of avertin. After anesthesia, the mice were fixed supine, the tongue was gently pulled, the vocal folds were exposed with a laryngoscope, the trachea was gently inserted, and the nebulized solution was rapidly pushed and injected. Each mouse was administered 100 μL of a 0.4 mg/mL bleomycin solution via tracheal spray, with the treatment performed once. Seven days after modeling, the mice were randomly grouped for ShSPI treatment based on weight loss scores. An additional 8 mice received the vehicle (normal saline) and were designated as the sham group.
A total of 48 suitable mice were randomly divided into five groups: the model control group (MC), the positive control group (PC), and the ShSPI low-dose groups (1 mg/kg), medium-dose groups (2 mg/kg), and high-dose groups (4 mg/kg).
Drug Administration: Starting on day 7 post-modeling, ShSPI peptide treatment groups were anesthetized with intramuscular avertin and received tracheal spray administration of the peptide. The low-dose group was treated with 1 mg/kg ShSPI peptide, the medium-dose group with 2 mg/kg, and the high-dose group with 4 mg/kg. The positive control group, without anesthesia, received 200 mg/kg pirfenidone (IPFD) via oral gavage. All groups were treated once daily for seven consecutive days.
The left lobe of the lung was collected from each mouse for total RNA extraction using RNAiso Plus, following the manufacturer’s instructions. The extracted RNA was quantified using a UV spectrophotometer. One microgram of total RNA was reverse transcribed into cDNA using a first-strand cDNA synthesis kit, following the provided protocol. Quantitative PCR (qPCR) was performed on a QuantStudio system using 2× SYBR Green qPCR Master Mix, and β-actin served as the internal control. The PCR reaction utilized a two-step protocol: 95 °C for 15 s, followed by 60 °C for 60 s, repeated for 40 cycles. Gene expression levels were calculated using the 2^−ΔΔCt method.

Structure (SMILES): Cc1ccc(=O)n(-c2ccccc2)c1 [pirfenidone, reference compound]
- mRNA content of pro-inflammatory cytokines (MCP-1, IL-6, IL-1β, IFN-γ) in lung tissue: reduction
